According to patent US9510570B2, “CD81 and OCLN double transgenic mouse and its construction methods” (WUHAN INSTITUTE OF VIROLOGY, CAS, priority 2013, dated 2016):

Tested on: HCV
Assay: Pharmacodynamic evaluation of antiviral drug in C/O^Tg mice by acute HCV infection (HCV RNA copies by qRT-PCR)
Type: in vivo, C/O^Tg male mice
Settings: for viral load in the peripheral blood: started 1 week after HCV injection
Experimental: Plasmid pJ399EM was transcribed in vitro (Han et al., 2009) to obtain a RNA, and then the RNA was electroporated into Huh7.5.1 cells (Pasteur Institute) for virus production during 96 hours and for collection, followed by ultrafiltration and purification to obtain HCV. The C/O^Tg double transgenic mice or the wile type mice were injected at tail-vein with HCV (TCID50=1×10^8/mL) within 1-2 minutes. The serum or liver tissue of the C/O^Tg double transgenic mice or the wile type mice were collected respectively at indicated time 0 hour to 12 months after infection. HCV RNA level in serum (genomes/mL) and liver (genomes/g) were measured by qRT-PCR. The program was performed as follows: 50° C. for 30 minutes, 95° C. for 10 minutes, followed by 50 cycles at 95° C. for 30 seconds, 58° C. for 30 seconds, and 72° C. for 30 seconds. Primers used for detection were as follows: sense (forward primer): […] (represented by SEQ ID NO. 5); anti-sense (reverse primer): […] (represented by SEQ ID NO. 6). The viral load in serum (genomes/mL) of the wild type mice after injection was: 53746900±747977 (12 hours), 25791242±8626787 (2 days), 7026±2797 (4 days), 433±73 (1 week), and then the viral copies in peripheral blood of wild type mice was undetectable after one week. The viral load in peripheral blood (genomes/mL) of the C/O^Tg double transgenic mice after injection was: 3598678±3016340 (12 hours), 1607875±1304933 (2 days), 228942±174178 (4 days), 64505±6821 (1 week), 67622±4612 (2 weeks), 33671±13347 (3 weeks), 6921±4272 (1 month), 6739±4783 (2 months), 403±95 (3 months), 534±125 (4 months), 1375±198 (6 months), 4781±2969 (10 months), 2067±277 (12 months). […] The viral copies cannot be detectable in liver of the wile type mice after injection. The viral copies in the liver (genomes/g) of the C/O^Tg double transgenic mice after injection was: 149676500±26422459.09 (12 hours), 68863260±26554660 (2 days), 30167166±14023164 (4 days), 48183923±49326087 (1 week), 5221675±782099 (2 weeks), 4723475±570250 (3 weeks), 5649760±3372903 (1 month), 3597135±2671267 (2 months), 1831199±34834 (3 months), 3055570±565440 (4 months), 10729851±3954535 (6 months), 14392085±1902774 (10 months), 15543000±124774 (12 months). […] Meanwhile, the liver tissues were used for pathological analysis (H&E stain, Masson's stain), ultrasound, CT and other non-invasive imaging analysis to assess hepatitis, liver damage (fibrosis and cirrhosis) and other typical HCV pathology caused by HCV infection. The double transgenic mice infected by HCV express mild hepatitis symptoms (most ALT<40). The ALT level of the wild type mice was (U/L): 17.8±11.08 (uninfected), 10.5 0.51 (12 hours), 7.0±1.42 (2 days), 29.5±9.19 (4 days), 6.6±3.54 (1 weeks), 28.2±8.84 (2 weeks), 17.7±13.33 (1 month), 27.9±1.69 (2 months), 26.5±0.70 (3 months), 37.4±12.90 (4 months), 27.3±6.01 (10 months), 16.5±6.29 (12 months). The ALT level of the C/O^Tg double transgenic mice was (U/L): 17.8±11.01 (uninfected), 7.8±6.72 (12 hours), 28.0±1.25 (2 days), 57.3±3.88 (4 days), 16.3±7.72 (1 week), 61.0±5.65 (2 week), 21.2±11.16 (1 month), 19.6±0.68 (2 months), 27.4±10.25 (3 months), 36.3±4.06 (4 months), 35.7±5.44 (6 months), 19.5±3.79 (10 months), 232.3±26.89 (12 months). […] The prealbumin levels of the wild type mice after injection were maintained at normal levels (20˜30 mg/L), but the prealbumin levels of the C/O^Tg double transgenic mice cannot be detectable 4 days after infection. […]

SMILES | viral copies in the liver (Telaprevir 200 mg/kg i.p. daily, 1 week after Telaprevir injection) | viral load in the peripheral blood (Ribavirin 20 mg/kg i.p. daily, treatment for 1 week) | viral load in the peripheral blood (Ribavirin 20 mg/kg i.p. daily, treatment for 4 weeks) | viral copies in the liver (Ribavirin 20 mg/kg i.p. daily, 1 week after Ribavirin injection) | viral copies in the liver (Ribavirin 20 mg/kg i.p. daily, 4 weeks after Ribavirin injection)
CCC[C@H](NC(=O)[C@@H]1[C@H]2CCC[C@H]2CN1C(=O)[C@@H](NC(=O)[C@@H](NC(=O)c1cnccn1)C1CCCCC1)C(C)(C)C)C(=O)C(=O)NC1CC1 [Telaprevir] | 273±301 genomes/mg | – | – | – | –
NC(=O)c1ncn([C@@H]2O[C@H](CO)[C@@H](O)[C@H]2O)n1 [Ribavirin] | – | cannot be detected | cannot be detected | 260±226 genomes/mg | 894±639 genomes/mg
